Reference: ChEMBL document CHEMBL1201862, “PubChem BioAssay data set” (2004)
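Dose response: 5 concentrations. Exposure: 48 h. Format: 96-well plates. Endpoint: linear interpolation; highest concentration if not reached. Abbreviation: GI50, concentration required for 50% inhibition of growth.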 The source made the active and inactive calls. Cut-off read from the data, not from the text of the source: active = GI50 up to about 1.1 µM and inactive = higher.

Legend:
Assay in all cases: DTP human tumour cell line panel, 48 h
[1] = test system: CCRF-CEM
[2] = test system: K562
[3] = test system: RPMI-8226
[4] = test system: SK-MEL-28
[5] = test system: COLO 205
[6] = test system: OVCAR-4
[7] = test system: U-251
[8] = test system: UO-31
[9] = test system: HL-60
[10] = test system: A549
[11] = test system: NCI-H23
[12] = test system: CAKI-1
[13] = test system: OVCAR-5
[14] = test system: UACC-62
[15] = test system: HOP-92

Measured: GI50

C=C=C[P+](c1ccccc1)(c1ccccc1)c1ccccc1
inactive: [1] 2.94 µM | [2] 3.4 µM | [3] 1.55 µM | [4] 21.4 µM | [5] 2.57 µM | [6] 21.9 µM | [7] 3.56 µM | [8] 35.2 µM | [9] 5.08 µM | [10] 26.8 µM

Cc1nc2ccncc2[nH]1
inactive: [1] > 100 µM | [2] > 100 µM | [11] > 100 µM | [12] > 100 µM | [4] > 100 µM | [5] > 100 µM | [13] > 100 µM | [14] > 100 µM | [6] > 100 µM | [7] > 100 µM | [8] > 100 µM | [9] > 100 µM | [10] > 100 µM

NC(CCCC(N)P(=O)(O)O)P(=O)(O)O (stereo unspecified)
inactive: [1] > 100 µM | [2] > 100 µM | [11] > 100 µM | [12] > 100 µM | [3] > 100 µM | [15] 64.7 µM | [4] > 100 µM | [5] > 100 µM | [14] > 100 µM | [7] > 100 µM | [8] > 100 µM | [10] > 100 µM

COc1ccccc1/C=C1\C(=O)N(C(=O)Cc2ccccc2)N=C1C
inactive: [1] > 100 µM | [2] > 100 µM | [11] > 100 µM | [12] > 100 µM | [3] > 100 µM | [4] > 100 µM | [5] > 100 µM | [13] > 100 µM | [6] > 100 µM | [7] > 100 µM | [8] > 100 µM | [9] > 100 µM | [10] > 100 µM

COc1nc(=O)n(COC(CO)CN2C(=O)c3ccccc3C2=O)cc1Cc1cccc(OCc2ccccc2)c1 (stereo unspecified)
inactive: [1] 24.1 µM | [2] 24.9 µM | [11] 27.2 µM | [3] 18.6 µM | [15] 21 µM | [4] 17.2 µM | [5] 19.8 µM | [14] 14.6 µM | [6] 21.8 µM | [7] 21.9 µM | [8] 16.3 µM | [9] 21.1 µM | [10] 23.5 µM

COc1ccc(C2=NN(c3ccccc3)C[N+](c3ccc(OC)cc3)=N2)cc1
inactive: [1] 23.2 µM | [2] 19.2 µM | [11] 29.9 µM | [3] 23.2 µM | [4] 26.9 µM | [5] > 10 µM | [13] 25 µM | [6] 18.6 µM | [7] 20.4 µM | [8] 18.9 µM | [9] 24 µM | [10] 48 µM

O=C(Cc1ccccc1)NN1C(=O)C(Cl)C1c1ccc([N+](=O)[O-])cc1 (stereo unspecified)
inactive: [1] > 10 µM | [2] 65.6 µM | [11] 53.5 µM | [12] > 100 µM | [3] 23.5 µM | [4] > 100 µM | [5] > 100 µM | [13] > 100 µM | [14] > 100 µM | [6] 55.6 µM | [7] > 100 µM | [8] > 100 µM | [9] 70.5 µM | [10] > 100 µM

COc1cccc(Cc2c3cc(OC)ccc3cc[n+]2C)c1
inactive: [1] 87.3 µM | [2] 36 µM | [11] 26.6 µM | [12] > 100 µM | [3] 24.7 µM | [4] 33.9 µM | [13] > 100 µM | [6] 58.5 µM | [7] 53.2 µM | [8] > 100 µM | [10] > 100 µM

C/C=C(\NC(=O)C(CCCCN)NC(=O)C(C)NC(=O)C1CSC(C)C(NC(=O)C2CSCC(NC(=O)C(C)NC(=O)C(N)C(C)CC)C(=O)NC(CCCCN)C(=O)NC(Cc3ccccc3)C(=O)NC(CC(C)C)C(=O)N2)C(=O)N2CCCC2C(=O)NCC(=O)N1)C(=O)NCC(=O)NC1CSCC2NC(=O)C(Cc3ccc(O)cc3)NC(=O)C(CSC=CNC2=O)NC(=O)C(CC(N)=O)NC(=O)C(Cc2ccccc2)NC1=O (stereo unspecified)
inactive: [1] > 100 µM | [2] > 100 µM | [11] > 100 µM | [4] 78.3 µM | [5] > 100 µM | [13] > 100 µM | [14] 37.6 µM | [6] > 100 µM | [7] > 100 µM | [9] > 100 µM | [10] > 100 µM

COc1ccc(/C(=N/NC(N)=O)C2(O)C(=O)Nc3ccc([N+](=O)[O-])cc32)cc1 (stereo unspecified)
inactive: [1] 11.6 µM | [2] 22 µM | [11] 17 µM | [12] 24.2 µM | [3] 25.6 µM | [15] 22.4 µM | [4] 20 µM | [5] 23 µM | [13] 31.5 µM | [14] 20 µM | [6] 13.6 µM | [7] > 10 µM | [8] 20.5 µM | [10] 55.6 µM

O=c1nc(NC(c2ccccc2)(c2ccccc2)c2ccccc2)ccn1CCO
inactive: [2] 58.7 µM | [11] > 100 µM | [3] 49.8 µM | [15] 41.4 µM | [4] > 100 µM | [5] > 100 µM | [13] > 100 µM | [6] 63.2 µM | [7] > 100 µM | [8] > 100 µM | [9] 41 µM | [10] 41.1 µM

COC(=O)CCC(NC(=S)N/N=C/c1ccccn1)C(=O)OC (stereo unspecified)
inactive: [1] > 100 µM | [2] > 100 µM | [11] > 100 µM | [3] > 100 µM | [15] 84.5 µM | [4] > 100 µM | [5] > 100 µM | [13] 63.1 µM | [14] > 100 µM | [6] > 100 µM | [7] > 100 µM | [8] > 100 µM | [9] 84.3 µM | [10] > 100 µM

CCOC(=O)Cn1c(=O)n(C)c(=O)c2[nH]cnc21
inactive: [1] > 100 µM | [2] > 100 µM | [11] > 100 µM | [12] > 100 µM | [3] > 100 µM | [15] > 100 µM | [4] > 100 µM | [5] > 100 µM | [14] > 100 µM | [7] > 100 µM | [8] > 100 µM | [10] > 100 µM

CN1N=C2c3ccccc3CC[C@H]2C1c1ccccc1 (stereo partly specified)
inactive: [1] > 100 µM | [2] > 100 µM | [11] 16.1 µM | [3] 28.6 µM | [15] 5.25 µM | [4] > 100 µM | [5] 35.7 µM | [13] > 100 µM | [14] 32.3 µM | [6] 23.1 µM | [7] 53.5 µM | [8] 19.4 µM | [9] 29.6 µM | [10] 35.6 µM

Brc1ccc(C[N+]23CN4CN(CN(C4)C2)C3)cc1
inactive: [1] 20.5 µM | [2] 25.4 µM | [11] 29.1 µM | [3] 20.4 µM | [4] 31.3 µM | [5] 26.3 µM | [14] 14.8 µM | [7] 69.3 µM | [8] 50.5 µM | [9] 10.4 µM | [10] 40.4 µM
